# Data taken from PMC6199744, “Development of Chemical Proteomics for the Folateome and Analysis of the Kinetoplastid Folateome” (ACS Infectious Diseases, 2018).
# Like-named read-outs stand apart in the source and are kept apart here.
# Columns and labels:
# Format in all cases: binding
# [1] = molecular target: T1, HeLa cell extract proteins (Homo sapiens, UniProt P23921)
# T1 construct: endogenous in cells; host or cells: HeLa cell extract
# T1 sequence (P23921 1-792): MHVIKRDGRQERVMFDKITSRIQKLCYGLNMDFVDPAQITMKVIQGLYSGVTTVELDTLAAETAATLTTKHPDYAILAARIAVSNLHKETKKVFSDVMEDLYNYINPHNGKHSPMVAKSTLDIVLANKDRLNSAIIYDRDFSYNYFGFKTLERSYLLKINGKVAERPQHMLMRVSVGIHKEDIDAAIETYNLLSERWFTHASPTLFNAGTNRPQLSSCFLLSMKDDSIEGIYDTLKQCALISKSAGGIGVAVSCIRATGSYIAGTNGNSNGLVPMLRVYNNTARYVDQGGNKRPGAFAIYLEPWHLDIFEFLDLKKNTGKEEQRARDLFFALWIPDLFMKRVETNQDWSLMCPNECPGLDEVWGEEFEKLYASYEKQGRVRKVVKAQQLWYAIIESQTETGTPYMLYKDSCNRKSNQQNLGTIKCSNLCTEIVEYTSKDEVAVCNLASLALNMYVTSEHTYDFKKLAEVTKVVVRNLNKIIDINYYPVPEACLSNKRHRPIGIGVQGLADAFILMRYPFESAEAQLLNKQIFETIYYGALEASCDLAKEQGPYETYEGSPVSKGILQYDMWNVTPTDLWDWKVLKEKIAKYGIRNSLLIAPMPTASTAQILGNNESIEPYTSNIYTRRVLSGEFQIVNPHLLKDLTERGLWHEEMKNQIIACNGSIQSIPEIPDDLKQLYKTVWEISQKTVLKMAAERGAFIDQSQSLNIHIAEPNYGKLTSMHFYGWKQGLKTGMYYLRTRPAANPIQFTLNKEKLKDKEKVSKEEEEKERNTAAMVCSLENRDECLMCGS
# [2] = molecular target: T2, HeLa cell extract proteins (Homo sapiens, UniProt P53396)
# T2 construct: endogenous in cells; host or cells: HeLa cell extract
# T2 sequence (P53396 1-1101): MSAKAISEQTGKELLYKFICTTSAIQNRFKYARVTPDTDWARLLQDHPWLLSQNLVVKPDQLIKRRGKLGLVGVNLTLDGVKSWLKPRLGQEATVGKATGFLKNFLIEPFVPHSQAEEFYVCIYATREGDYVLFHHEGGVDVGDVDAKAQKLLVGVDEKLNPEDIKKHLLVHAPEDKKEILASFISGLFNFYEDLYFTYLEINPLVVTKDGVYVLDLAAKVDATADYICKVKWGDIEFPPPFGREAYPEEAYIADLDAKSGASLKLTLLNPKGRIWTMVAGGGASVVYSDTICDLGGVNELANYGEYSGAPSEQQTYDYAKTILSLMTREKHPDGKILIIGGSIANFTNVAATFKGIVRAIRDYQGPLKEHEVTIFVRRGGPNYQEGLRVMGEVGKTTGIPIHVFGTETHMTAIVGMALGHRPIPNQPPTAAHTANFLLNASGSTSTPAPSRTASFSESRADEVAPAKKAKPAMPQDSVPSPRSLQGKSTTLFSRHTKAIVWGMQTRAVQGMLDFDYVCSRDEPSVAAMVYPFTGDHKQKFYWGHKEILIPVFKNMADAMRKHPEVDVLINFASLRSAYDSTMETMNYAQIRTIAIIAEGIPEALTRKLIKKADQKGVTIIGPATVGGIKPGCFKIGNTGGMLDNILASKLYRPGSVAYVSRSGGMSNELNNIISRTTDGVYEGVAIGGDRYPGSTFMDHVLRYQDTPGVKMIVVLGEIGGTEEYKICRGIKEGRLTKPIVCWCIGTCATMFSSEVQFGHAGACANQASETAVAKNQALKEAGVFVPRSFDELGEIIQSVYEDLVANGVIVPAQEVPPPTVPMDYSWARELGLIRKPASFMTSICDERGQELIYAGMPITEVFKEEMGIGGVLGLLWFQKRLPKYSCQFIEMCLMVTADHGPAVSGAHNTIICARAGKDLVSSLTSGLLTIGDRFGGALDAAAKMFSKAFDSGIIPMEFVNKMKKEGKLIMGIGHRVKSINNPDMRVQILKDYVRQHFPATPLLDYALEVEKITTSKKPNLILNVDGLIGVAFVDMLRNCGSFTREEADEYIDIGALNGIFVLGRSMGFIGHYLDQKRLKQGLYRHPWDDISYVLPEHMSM
# [3] = molecular target: T3, HeLa cell extract proteins (Homo sapiens, UniProt Q96EY1)
# T3 construct: endogenous in cells; host or cells: HeLa cell extract
# T3 sequence (Q96EY1 1-480): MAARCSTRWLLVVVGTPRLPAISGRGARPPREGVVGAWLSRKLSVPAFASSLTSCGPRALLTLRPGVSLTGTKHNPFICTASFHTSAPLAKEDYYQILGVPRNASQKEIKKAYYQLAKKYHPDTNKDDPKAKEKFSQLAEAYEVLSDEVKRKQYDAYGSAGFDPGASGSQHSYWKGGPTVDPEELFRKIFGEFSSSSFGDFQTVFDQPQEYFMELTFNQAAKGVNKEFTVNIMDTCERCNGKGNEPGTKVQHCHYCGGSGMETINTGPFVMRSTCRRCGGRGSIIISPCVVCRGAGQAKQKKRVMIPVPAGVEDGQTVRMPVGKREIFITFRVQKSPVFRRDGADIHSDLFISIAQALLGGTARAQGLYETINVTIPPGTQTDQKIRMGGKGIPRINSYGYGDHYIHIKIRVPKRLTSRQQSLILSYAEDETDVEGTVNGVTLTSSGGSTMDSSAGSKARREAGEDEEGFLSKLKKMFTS
SMILES,"fold changes relative to vehicle control ([1]; HeLa, protein RRM1)","fold changes relative to vehicle control ([2]; HeLa, protein ACLY)","fold changes relative to vehicle control ([3]; protein DNAJA3, HeLa)","fold changes relative to vehicle control ([1]; protein RRM1, HeLa)","fold changes relative to vehicle control ([2]; protein ACLY, HeLa)","fold changes relative to vehicle control ([3]; captured protein DNAJA3, HeLa)",also measured
"Nc1nc2c(c(=O)[nH]1)N(C=O)C(CNc1ccc(C(=O)N[C@@H](CCC(=O)O)C(=O)O)cc1)CN2 (stereo partly drawn) [LEU, leucovorin]",0.99,1.04,0.8,–,–,–,–
NCCCNc1ccc(C(=O)NC(CCC(=O)O)C(=O)O)cc1 (stereo not drawn) [compound 7],0.96,1.04,1.06,–,–,–,–
CCCCCCOc1cccc(Cc2cnc(N)nc2N)c1 [compound 2],–,–,–,1.29,1.99,1.16,–
CCCCCCOc1ccc(Cc2cnc(N)nc2N)cc1 [compound 1],–,–,–,1.05,1.25,0.84,–
Nc1nc2cccc(-c3ccccc3)c2n1Cc1ccc(Cl)c(Cl)c1 [compound 3],–,–,–,0.89,1.2,1.05,–
NCCOCCOCC(=O)Nc1nc2ncc(CNc3ccc(C(=O)NC(CCC(=O)O)C(=O)O)cc3)nc2c(=O)[nH]1 (stereo not drawn) [compound 6],1.06,1.19,1.2,–,–,–,–
"Nc1nc2[nH]cc(CCc3ccc(C(=O)N[C@@H](CCC(=O)O)C(=O)O)cc3)c2c(=O)[nH]1 [PTX, pemetrexed]",–,–,–,–,–,–,fold changes relative to vehicle control [1]: 1.05; fold changes relative to vehicle control [2]: 1.1; fold changes relative to vehicle control [3]: 0.84
